Source: ChEMBL document CHEMBL1134040, “Allyl and propargyl substituted penam sulfones as versatile intermediates toward the syntheses of new beta-lactamase inhibitors” (Bioorg Med Chem Lett, 2001)
In brackets after ≈: the same amount, converted by molar mass.

Key:
Beta-lactamase = Beta-lactamase (Escherichia coli K-12, UniProt P00811); assay: In vitro inhibitory concentration against AmpC enzyme
[1] = target: Metallo-beta-lactamase type 2 (Bacteroides fragilis, UniProt P25910); assay: In vitro inhibitory concentration against CCRA enzyme
Beta-lactamase TEM = Beta-lactamase TEM (Escherichia coli, UniProt P62593); assay: In vitro inhibitory concentration against TEM-1 enzyme
Escherichia coli [2] = assay: In vitro antibacterial activity against TEM-1 producing Escherichia coli (GC2206); format: functional
Escherichia coli [3] = assay: In vitro antibacterial activity against AmpC producing Escherichia coli (GC2894); format: functional

Sequence of Beta-lactamase (P00811 whole entry): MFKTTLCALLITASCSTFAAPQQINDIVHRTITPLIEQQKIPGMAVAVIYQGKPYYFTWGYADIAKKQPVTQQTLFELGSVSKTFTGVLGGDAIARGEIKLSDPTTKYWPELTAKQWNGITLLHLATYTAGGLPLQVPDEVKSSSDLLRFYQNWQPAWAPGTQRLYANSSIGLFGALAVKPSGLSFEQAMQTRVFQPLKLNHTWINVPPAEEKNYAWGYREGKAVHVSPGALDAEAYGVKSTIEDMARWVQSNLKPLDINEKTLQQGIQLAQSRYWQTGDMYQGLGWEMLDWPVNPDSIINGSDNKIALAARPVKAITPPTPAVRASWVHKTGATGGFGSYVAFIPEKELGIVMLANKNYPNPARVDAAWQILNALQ
Sequence of Metallo-beta-lactamase type 2 (P25910 whole entry): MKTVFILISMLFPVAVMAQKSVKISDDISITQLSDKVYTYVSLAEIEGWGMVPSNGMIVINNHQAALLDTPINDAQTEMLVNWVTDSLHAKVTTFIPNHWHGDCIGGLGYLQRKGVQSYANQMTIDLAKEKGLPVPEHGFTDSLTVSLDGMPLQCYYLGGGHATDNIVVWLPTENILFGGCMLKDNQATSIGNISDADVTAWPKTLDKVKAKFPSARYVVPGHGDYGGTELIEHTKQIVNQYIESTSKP
Sequence of Beta-lactamase TEM (P62593 whole entry): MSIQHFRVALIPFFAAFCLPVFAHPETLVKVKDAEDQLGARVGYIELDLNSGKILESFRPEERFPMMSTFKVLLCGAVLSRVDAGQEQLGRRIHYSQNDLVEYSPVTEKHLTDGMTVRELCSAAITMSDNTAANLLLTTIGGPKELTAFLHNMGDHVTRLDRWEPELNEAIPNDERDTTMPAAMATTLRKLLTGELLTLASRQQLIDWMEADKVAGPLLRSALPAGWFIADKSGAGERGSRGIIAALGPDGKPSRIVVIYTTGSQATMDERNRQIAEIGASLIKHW

| Compound | IC50 (Beta-lactamase) [µM] | IC50 [1] [µM] | IC50 (Beta-lactamase TEM) [µM] | MIC (Escherichia coli [2]) [µg/mL] | MIC (Escherichia coli [3]) [µg/mL] |
| --- | --- | --- | --- | --- | --- |
| CC1(C)[C@H](C(=O)O)N2C(=O)[C@@H](Cc3cn(CC(N)Cc4ccc(O)cc4)nn3)[C@H]2S1(=O)=O (some centres undefined) | 6.6 | 24 | 15 | – | – |
| CC1(C)[C@H](C(=O)O)N2C(=O)C(C/C=C/C#N)[C@@H]2S1(=O)=O (some centres undefined) | > 100 | 3.1 | 24 | – | – |
| CON(C)C(=O)/C=C/CC1C(=O)N2[C@@H](C(=O)O)C(C)(C)S(=O)(=O)[C@H]12 (some centres undefined) | 17 | > 100 | – | – | – |
| CC1(C)[C@H](C(=O)O)N2C(=O)[C@@H](Cc3cn(-c4ccc(N)cc4)nn3)[C@H]2S1(=O)=O | 1.4 | 1.8 | 0.6 | 32 (≈ 78.9 µM) | 64 (≈ 158 µM) |
| CC1(C)[C@H](C(=O)O)N2C(=O)[C@@H](Cc3cn(-c4ccccc4)nn3)[C@H]2S1(=O)=O | 3.4 | > 100 | 1 | – | – |
| COC(=O)/C=C/CC1C(=O)N2[C@@H](C(=O)O)C(C)(C)S(=O)(=O)[C@@H]12 (some centres undefined) | 64 | 1.4 | 2.8 | – | – |
| CC1(C)[C@H](C(=O)O)N2C(=O)[C@@H](Cc3cn(CC4CCCN4)nn3)[C@H]2S1(=O)=O (some centres undefined) | 5.2 | 22 | 7.9 | – | – |
| CC1(C)[C@H](C(=O)O)N2C(=O)[C@@H](Cc3cn(-c4ccc(O)cc4)nn3)[C@H]2S1(=O)=O | 2.3 | 2.1 | 0.7 | – | – |
| CC1(C)[C@H](C(=O)O)N2C(=O)C(C/C=C/C=O)[C@H]2S1(=O)=O (some centres undefined) | 17 | > 100 | 12 | – | – |
| CC1(C)[C@H](C(=O)O)N2C(=O)[C@@H](Cc3cn(-c4ccc(F)cc4)nn3)[C@H]2S1(=O)=O | 3 | 4.1 | 1.6 | – | – |
| CC(=O)/C=C/CC1C(=O)N2[C@@H](C(=O)O)C(C)(C)S(=O)(=O)[C@H]12 (some centres undefined) | 100 | 71 | 8.4 | – | – |
| COC(=O)/C=C/CC1C(=O)N2[C@@H](C(=O)O)C(C)(C)S(=O)(=O)[C@H]12 (some centres undefined) | 29 | > 100 | 8.6 | – | – |
| CC(=O)/C=C/CC1C(=O)N2[C@@H](C(=O)O)C(C)(C)S(=O)(=O)[C@@H]12 (some centres undefined) | 40 | 3 | 6.5 | – | – |
| CCN1CCN(C(=O)N[C@@H](C(=O)N[C@@H]2C(=O)N3[C@@H]2SC(C)(C)[C@@H]3C(=O)O)c2ccccc2)C(=O)C1=O [PIPERACILLIN] | – | – | – | > 64 | > 64 |
| C[C@]1(Cn2ccnn2)[C@H](C(=O)O)N2C(=O)C[C@H]2S1(=O)=O [TAZOBACTAM] | – | – | – | 2 (≈ 6.66 µM) | 16 (≈ 53.3 µM) |
